The source made the active and inactive calls.
What was measured:
[1] = molecular target: Peroxisome proliferator-activated receptor gamma/Nuclear receptor coactivator 1 (Homo sapiens, UniProt P37231); experiment: TR-FRET dose response biochemical High Throughput Screening assay for agonists of the steroid receptor coactivator 1 (SRC-1) recruitment by the peroxisome proliferator-activated receptor gamma (PPAR gamma): non-selective agonists. [Related pubchem assays (depositor defined):AID1300, AID1808, AID504735, AID631]; format: protein assay
[2] = molecular target: Peroxisome proliferator-activated receptor gamma/Nuclear receptor coactivator 3 (Homo sapiens, UniProt P37231); experiment: TR-FRET dose response biochemical High Throughput Screening assay for agonists of the steroid receptor coactivator 3 (SRC-3) recruitment by the peroxisome proliferator-activated receptor gamma (PPAR gamma): non-selective agonists. [Related pubchem assays: 1301 (Confirmation screen.), 1048 (Primary screen.)]; format: functional
Sequence of Peroxisome proliferator-activated receptor gamma/Nuclear receptor coactivator 3 (P37231 whole entry): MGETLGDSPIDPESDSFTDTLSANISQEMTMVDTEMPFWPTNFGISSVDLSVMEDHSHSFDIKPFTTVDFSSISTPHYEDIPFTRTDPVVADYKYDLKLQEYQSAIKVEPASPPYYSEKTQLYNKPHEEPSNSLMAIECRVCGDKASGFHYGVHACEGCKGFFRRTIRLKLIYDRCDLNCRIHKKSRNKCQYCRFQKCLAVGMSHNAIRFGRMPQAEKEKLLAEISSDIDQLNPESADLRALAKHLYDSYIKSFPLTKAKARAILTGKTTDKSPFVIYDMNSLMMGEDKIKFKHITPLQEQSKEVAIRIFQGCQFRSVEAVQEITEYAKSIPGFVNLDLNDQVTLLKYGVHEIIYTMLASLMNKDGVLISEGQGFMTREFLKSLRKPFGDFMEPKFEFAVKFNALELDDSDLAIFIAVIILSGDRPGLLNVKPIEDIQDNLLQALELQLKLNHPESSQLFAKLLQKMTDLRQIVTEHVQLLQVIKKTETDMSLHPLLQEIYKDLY
Sequence of Peroxisome proliferator-activated receptor gamma/Nuclear receptor coactivator 3 (Q9Y6Q9 whole entry, further chain): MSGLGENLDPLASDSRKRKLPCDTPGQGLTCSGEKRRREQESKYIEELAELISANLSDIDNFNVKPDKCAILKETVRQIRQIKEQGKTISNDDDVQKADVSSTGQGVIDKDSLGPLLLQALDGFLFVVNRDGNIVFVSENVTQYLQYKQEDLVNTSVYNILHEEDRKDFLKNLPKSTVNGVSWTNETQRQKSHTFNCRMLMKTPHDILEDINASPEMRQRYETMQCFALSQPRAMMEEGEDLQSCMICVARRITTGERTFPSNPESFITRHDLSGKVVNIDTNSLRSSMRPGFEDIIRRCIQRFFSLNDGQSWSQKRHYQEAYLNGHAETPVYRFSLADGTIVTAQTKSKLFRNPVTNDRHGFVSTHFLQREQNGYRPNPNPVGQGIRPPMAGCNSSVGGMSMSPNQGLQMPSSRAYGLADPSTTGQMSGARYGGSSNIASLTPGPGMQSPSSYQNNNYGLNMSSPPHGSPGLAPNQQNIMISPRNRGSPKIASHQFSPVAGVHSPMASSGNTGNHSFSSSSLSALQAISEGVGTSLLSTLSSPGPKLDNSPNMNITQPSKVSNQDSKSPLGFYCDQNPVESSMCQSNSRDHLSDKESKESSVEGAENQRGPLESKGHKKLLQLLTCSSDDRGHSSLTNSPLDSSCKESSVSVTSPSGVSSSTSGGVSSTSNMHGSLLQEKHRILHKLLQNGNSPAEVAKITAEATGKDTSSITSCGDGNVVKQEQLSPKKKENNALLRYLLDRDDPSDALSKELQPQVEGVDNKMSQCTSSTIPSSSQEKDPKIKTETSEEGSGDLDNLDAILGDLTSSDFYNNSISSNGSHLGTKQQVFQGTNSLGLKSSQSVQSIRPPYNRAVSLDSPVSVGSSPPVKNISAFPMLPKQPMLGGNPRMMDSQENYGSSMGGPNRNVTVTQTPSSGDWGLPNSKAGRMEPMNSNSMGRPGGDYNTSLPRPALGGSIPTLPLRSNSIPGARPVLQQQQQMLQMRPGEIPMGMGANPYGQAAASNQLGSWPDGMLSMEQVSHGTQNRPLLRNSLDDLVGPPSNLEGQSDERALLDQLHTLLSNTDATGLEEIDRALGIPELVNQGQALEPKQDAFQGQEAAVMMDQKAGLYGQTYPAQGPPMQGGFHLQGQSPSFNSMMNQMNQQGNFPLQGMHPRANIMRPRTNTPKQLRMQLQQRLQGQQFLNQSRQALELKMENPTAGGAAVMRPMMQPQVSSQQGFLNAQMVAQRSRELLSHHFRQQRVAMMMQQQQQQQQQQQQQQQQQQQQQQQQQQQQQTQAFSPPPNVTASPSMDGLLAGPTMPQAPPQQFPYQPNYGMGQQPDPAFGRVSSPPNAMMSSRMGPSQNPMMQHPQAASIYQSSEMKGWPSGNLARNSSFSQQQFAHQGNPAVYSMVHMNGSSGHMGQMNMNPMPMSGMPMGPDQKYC

[3] = molecular target: Peroxisome proliferator-activated receptor gamma/Nuclear receptor coactivator 2 (Homo sapiens, UniProt P37231); experiment: TR-FRET dose response biochemical High Throughput Screening assay for agonists of the steroid receptor coactivator 2 (SRC-2) recruitment by the peroxisome proliferator-activated receptor gamma (PPAR gamma): non-selective agonists. [Related pubchem assays: 1297, 1032 ]; format: functional
[4] = molecular target: Protein Wnt-3a (Mus musculus, UniProt P27467); experiment: antagonism of Wnt3a pathway luciferase reporter – Wnt-LIGHT cells, luminescence, selectivity assay for Gli-SUFU antagonist project, dose response (AID 651570); format: functional; settings: read-out: IC50_Mean;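 further: Wnt-LIGHT reporter cells stimulated with conditioned medium from Wnt3a-producing cells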
Sequence of Protein Wnt-3a (P27467 whole entry): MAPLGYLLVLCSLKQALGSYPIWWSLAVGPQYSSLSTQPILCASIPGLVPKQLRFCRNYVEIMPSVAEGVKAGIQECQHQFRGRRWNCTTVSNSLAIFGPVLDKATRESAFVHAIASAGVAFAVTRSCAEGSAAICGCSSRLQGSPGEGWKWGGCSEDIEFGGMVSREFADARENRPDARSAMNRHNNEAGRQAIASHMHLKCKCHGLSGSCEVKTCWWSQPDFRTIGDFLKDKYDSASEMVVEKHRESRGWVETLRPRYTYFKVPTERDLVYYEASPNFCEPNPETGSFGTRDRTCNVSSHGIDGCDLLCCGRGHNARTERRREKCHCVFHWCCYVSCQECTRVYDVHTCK

[5] = molecular target: T1, Caspase-3 (Homo sapiens, UniProt P42574); format: functional;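 further: Dose-response selectivity test against caspase-3 for candidate inhibitors of sentrin-specific proteases (SENPs)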
T1 sequence (P42574 whole entry): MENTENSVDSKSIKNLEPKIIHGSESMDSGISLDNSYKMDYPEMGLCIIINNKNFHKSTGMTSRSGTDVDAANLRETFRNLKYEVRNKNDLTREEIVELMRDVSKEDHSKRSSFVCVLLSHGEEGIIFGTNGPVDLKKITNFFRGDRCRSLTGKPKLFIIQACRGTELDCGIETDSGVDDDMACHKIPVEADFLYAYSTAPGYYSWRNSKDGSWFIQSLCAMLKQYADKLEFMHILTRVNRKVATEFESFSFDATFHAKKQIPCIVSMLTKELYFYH

[6] = molecular target: T2, Sentrin-specific protease 7 (Homo sapiens, UniProt Q9BQF6); format: functional;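 further: Luminescence-based dose-response confirmation of ultra-high-throughput screening hits, measuring inhibition of SENP7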
T2 sequence (Q9BQF6 whole entry): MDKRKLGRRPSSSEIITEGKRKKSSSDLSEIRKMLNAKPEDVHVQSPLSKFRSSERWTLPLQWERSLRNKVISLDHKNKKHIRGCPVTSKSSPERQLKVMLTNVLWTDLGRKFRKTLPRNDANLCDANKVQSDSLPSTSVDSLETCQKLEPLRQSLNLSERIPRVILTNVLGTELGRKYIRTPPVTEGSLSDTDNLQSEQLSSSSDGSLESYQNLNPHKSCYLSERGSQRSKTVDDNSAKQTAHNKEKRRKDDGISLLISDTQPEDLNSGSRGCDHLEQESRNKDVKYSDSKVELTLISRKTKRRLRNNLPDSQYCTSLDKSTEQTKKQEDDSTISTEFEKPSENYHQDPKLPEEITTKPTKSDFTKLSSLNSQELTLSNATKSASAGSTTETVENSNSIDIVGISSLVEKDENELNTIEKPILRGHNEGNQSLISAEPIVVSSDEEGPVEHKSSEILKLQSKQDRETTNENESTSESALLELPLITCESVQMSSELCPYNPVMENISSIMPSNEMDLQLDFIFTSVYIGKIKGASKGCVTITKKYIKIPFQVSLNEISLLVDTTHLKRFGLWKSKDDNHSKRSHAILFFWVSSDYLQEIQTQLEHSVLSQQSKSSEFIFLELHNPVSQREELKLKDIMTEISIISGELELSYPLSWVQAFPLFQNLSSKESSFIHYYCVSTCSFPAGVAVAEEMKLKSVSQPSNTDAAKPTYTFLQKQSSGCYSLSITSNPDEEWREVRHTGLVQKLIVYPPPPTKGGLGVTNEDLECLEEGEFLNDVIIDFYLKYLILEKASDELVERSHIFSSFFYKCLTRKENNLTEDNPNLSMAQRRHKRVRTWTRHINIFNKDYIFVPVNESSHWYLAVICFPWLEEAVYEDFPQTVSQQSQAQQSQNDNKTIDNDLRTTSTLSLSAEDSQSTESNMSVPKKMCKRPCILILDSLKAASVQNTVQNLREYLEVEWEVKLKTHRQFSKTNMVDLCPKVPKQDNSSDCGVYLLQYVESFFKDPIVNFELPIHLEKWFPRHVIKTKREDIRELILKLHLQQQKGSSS

[7] = molecular target: T3, Sentrin-specific protease 6 (Homo sapiens, UniProt Q9GZR1); format: functional;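 further: Luminescence-based dose-response confirmatory assay of SENP6 inhibition, following up an ultra-high-throughput screen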
T3 sequence (Q9GZR1 whole entry): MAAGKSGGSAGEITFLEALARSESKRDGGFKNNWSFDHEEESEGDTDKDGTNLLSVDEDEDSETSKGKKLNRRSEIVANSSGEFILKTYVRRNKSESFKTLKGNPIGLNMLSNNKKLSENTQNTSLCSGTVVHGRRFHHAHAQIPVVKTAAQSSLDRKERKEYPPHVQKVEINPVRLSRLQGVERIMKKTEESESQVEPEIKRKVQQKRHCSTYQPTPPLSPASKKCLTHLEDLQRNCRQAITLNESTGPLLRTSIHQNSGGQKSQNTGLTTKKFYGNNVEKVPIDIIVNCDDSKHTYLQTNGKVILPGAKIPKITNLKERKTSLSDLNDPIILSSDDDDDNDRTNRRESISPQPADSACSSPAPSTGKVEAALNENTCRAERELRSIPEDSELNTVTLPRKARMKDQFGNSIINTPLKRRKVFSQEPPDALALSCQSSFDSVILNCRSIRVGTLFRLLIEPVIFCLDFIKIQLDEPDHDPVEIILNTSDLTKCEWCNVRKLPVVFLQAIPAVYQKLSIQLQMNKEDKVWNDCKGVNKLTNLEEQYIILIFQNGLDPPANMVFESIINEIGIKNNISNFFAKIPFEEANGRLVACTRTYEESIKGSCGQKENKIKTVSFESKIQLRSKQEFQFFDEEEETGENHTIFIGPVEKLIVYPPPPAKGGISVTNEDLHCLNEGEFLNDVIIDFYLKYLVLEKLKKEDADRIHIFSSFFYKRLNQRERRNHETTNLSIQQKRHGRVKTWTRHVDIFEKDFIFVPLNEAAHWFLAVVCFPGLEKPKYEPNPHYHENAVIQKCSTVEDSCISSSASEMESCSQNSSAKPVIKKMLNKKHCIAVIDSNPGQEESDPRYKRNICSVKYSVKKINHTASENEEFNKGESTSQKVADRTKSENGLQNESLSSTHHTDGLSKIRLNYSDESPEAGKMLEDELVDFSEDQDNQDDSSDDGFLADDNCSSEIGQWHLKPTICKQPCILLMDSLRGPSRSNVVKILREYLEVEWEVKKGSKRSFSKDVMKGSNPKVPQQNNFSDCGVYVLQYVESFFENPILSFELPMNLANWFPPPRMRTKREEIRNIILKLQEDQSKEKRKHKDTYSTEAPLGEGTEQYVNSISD

[8] = molecular target: T4, Sentrin-specific protease 8 (Homo sapiens, UniProt Q96LD8); format: functional;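 further: luminescence read-out of SENP8 inhibition, dose-response confirmation following an ultra-high-throughput screen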
T4 sequence (Q96LD8 whole entry): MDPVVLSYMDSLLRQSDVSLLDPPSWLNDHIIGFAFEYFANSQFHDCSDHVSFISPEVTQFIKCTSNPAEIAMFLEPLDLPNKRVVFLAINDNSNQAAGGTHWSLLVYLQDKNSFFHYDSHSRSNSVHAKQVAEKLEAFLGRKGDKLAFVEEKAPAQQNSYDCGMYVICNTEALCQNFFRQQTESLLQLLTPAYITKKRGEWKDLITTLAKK

[9] = molecular target: T5, Protein skinhead-1 (Caenorhabditis elegans, UniProt P34707); format: functional
T5 sequence (P34707 whole entry): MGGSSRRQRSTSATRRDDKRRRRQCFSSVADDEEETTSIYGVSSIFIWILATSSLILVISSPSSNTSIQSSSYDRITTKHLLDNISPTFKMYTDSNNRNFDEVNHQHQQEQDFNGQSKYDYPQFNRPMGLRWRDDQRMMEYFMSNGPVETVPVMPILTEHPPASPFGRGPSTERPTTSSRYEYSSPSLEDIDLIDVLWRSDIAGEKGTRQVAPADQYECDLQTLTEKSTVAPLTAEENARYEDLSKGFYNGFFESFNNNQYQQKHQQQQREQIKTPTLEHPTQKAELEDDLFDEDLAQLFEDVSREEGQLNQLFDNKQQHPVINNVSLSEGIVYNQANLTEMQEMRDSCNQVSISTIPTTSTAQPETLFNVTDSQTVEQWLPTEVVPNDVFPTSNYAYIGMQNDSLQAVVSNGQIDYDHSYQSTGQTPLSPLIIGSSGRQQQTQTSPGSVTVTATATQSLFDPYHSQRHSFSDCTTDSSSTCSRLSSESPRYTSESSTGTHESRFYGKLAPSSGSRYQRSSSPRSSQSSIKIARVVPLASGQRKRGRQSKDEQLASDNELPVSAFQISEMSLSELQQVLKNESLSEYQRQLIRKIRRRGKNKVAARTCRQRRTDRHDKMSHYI

[10] = molecular target: Tyrosine-protein phosphatase non-receptor type 11 (Homo sapiens, UniProt Q06124); experiment: PTPN11 enzyme inhibitors – biochemical, selectivity assay for STEP inhibitor project, dose response (AID 602367); format: functional; settings: read-out: IC50_Mean
Sequence of Tyrosine-protein phosphatase non-receptor type 11 (Q06124 whole entry): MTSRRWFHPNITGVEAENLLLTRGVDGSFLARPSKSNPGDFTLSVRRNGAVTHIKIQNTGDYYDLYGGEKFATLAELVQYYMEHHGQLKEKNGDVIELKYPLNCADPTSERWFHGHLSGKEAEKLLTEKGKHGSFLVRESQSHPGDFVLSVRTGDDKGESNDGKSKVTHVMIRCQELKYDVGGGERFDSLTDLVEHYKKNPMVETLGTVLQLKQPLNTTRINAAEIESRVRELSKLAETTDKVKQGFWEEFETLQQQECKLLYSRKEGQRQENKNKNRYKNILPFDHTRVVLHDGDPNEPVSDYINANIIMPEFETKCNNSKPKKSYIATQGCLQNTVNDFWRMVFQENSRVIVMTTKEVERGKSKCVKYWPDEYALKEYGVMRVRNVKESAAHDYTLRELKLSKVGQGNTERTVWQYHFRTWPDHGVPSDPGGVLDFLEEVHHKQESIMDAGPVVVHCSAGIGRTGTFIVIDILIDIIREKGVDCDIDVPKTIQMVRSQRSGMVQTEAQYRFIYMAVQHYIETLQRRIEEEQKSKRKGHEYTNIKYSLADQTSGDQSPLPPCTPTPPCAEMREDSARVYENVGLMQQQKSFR

[11] = molecular target: Tyrosine-protein phosphatase non-receptor type 5 (Homo sapiens, UniProt P54829); experiment: PTPN5 enzyme inhibition – biochemical, fluorescence intensity, uHTS hits, confirmation (AID 602372); format: functional; settings: read-out: IC50_Mean
Sequence of Tyrosine-protein phosphatase non-receptor type 5 (P54829 whole entry): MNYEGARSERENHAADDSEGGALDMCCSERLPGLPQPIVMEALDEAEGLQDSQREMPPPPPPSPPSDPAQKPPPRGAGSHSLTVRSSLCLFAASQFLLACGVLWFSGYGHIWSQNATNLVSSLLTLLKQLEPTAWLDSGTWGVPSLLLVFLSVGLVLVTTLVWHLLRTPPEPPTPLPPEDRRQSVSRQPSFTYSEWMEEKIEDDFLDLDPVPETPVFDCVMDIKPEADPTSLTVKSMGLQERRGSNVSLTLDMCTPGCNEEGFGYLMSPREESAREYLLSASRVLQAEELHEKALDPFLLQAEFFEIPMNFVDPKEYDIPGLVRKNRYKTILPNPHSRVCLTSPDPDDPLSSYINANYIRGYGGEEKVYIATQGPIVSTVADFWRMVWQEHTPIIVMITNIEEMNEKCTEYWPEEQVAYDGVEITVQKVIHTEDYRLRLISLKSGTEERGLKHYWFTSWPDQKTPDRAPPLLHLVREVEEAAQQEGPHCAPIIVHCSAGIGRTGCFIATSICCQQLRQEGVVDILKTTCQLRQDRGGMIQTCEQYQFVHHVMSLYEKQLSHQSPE

[12] = molecular target: Dual specificity protein phosphatase 3 (Homo sapiens, UniProt P51452); experiment: VHR phosphatase inhibition, dose response, selectivity assay for STEP inhibitor project, biochemical (AID 602374); format: functional; settings: read-out: IC50_Mean
Sequence of Dual specificity protein phosphatase 3 (P51452 whole entry): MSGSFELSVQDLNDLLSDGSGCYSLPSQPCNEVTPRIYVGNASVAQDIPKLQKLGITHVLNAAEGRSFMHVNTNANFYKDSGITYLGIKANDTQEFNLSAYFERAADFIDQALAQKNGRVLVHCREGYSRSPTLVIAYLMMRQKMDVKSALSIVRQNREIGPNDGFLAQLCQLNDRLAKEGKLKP

[13] = molecular target: SUMO-activating enzyme (Homo sapiens, UniProt Q9UBT2); experiment: blockers of UBC9-mediated SUMO conjugation – biochemical, AlphaScreen, SUMOylation inhibitor project, confirmation (AID 2018); format: functional
[14] = system: Streptococcus sp. 'group A'; experiment: Streptococcus pyogenes SK(-)GAS viability under kanamycin – luminescence, BacTiterGlo, confirmation, counter-screen for streptokinase expression inhibitor project, dose response (AID 1900); format: functional, organism-based
[15] = molecular target: T6, Streptokinase A (Streptococcus pyogenes serotype M1, UniProt P10520); experiment: viability-normalized secreted streptokinase activity reduction – plasminogen activation absorbance, OD405, dose response (AID 1914); format: functional, Streptococcus pyogenes M1 GAS;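 further: secreted streptokinase activity via plasminogen activation per viability signal from cell pellet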
T6 sequence (P10520 whole entry): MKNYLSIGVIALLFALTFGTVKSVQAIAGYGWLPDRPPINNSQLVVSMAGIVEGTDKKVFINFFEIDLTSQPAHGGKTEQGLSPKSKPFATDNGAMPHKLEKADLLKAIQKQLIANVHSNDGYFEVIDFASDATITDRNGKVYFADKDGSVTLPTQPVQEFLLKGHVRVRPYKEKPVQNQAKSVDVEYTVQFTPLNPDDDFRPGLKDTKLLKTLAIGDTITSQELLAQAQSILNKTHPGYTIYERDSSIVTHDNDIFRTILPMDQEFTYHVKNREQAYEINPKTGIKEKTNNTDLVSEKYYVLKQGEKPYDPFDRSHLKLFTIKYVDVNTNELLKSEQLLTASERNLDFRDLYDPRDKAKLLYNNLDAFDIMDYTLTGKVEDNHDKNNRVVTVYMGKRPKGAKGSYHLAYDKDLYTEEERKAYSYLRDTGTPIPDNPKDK

[16] = system: Streptococcus; experiment: GAS UMAA2166 growth inhibition – luminescence, BacTiterGlo, counter-screen for streptokinase expression inhibitor project, dose response (AID 1915); format: functional, organism-based;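 further: potency for reduction of bacterial viability or growth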
[17] = molecular target: T7, Polyadenylate-binding protein 1 (Homo sapiens, UniProt P11940); experiment: MLLE binding blockers, Cy5 peptide tracer – biochemical, fluorescence polarization, Cy5-PAM2 peptide, secondary, miRNA deadenylation inhibitor project, dose response (AID 602260); format: functional; settings: read-out: IC50_Mean
T7 sequence (P11940 whole entry, the tested form may be a part): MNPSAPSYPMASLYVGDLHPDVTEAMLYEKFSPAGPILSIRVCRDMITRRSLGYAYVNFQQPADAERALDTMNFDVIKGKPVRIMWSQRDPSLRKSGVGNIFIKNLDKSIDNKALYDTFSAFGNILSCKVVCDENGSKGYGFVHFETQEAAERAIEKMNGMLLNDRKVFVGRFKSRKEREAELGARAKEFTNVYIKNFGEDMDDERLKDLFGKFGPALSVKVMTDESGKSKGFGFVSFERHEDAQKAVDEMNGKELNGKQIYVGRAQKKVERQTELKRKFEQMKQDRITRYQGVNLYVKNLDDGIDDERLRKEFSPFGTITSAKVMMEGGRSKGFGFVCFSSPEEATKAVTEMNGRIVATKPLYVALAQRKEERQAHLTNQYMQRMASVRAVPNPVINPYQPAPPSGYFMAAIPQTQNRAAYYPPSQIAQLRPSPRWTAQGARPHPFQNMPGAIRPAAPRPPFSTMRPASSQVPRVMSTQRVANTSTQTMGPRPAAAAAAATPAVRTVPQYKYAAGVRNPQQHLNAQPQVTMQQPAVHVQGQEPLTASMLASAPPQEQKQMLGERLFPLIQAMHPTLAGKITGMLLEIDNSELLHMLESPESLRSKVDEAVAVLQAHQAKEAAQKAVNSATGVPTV

[18] = molecular target: T7, Polyadenylate-binding protein 1; experiment: MLLE domain peptide-binding blockers, IC50 – biochemical, fluorescence polarization, FITC-PAM2 peptide, dose response (AID 602259); format: functional; settings: read-out: IC50_Mean

CCOc1ccc(S(=O)(=O)N(C)c2ccc(OCC(=O)Nc3nc(-c4cc(OC)ccc4OC)cs3)cc2)cc1
EC50 [1]: 36.5 µM (inactive)
EC50 [2]: > 79.4 µM (not active)
EC50 [3]: 34.8 µM (not active)

CCOc1ccc(NS(=O)(=O)c2cccc(C(=O)N3CCN(C/C=C/c4ccccc4)CC3)c2)cc1
IC50 [4]: 22.7 µM (inactive)

O=c1c2ccccc2oc2ccc(-c3ccc4[nH]ccc4c3)cc12
IC50 [5]: 75.1 µM (active)
IC50 [6]: 6.1 µM (active)
IC50 [7]: 33.7 µM (active)
IC50 [8]: > 100 µM (inactive)
IC50 [9]: 4.77 µM (active)

S=C(NCCCN1CCOCC1)Nc1ccc(-c2nc3ccccc3[nH]2)cc1
IC50 [10]: 3.45 µM (active)
IC50 [11]: 56.7 µM (inactive)
IC50 [12]: 3.03 µM (active)

CC(=O)Nc1ccc(S(=O)(=O)Nc2nc3ccccc3nc2Nc2ccc3ccccc3c2)cc1
IC50 [13]: > 100 µM (inactive)

Cc1n[nH]c(Nc2ccc(C(C)C)cc2)c1[N+](=O)[O-]
EC50 [14]: 30.9 µM (active)
EC50 [15]: 22.3 µM (active)
EC50 [16]: > 150 µM (not active)
IC50 [5]: 36 µM (active)
IC50 [6]: 9.42 µM (active)
IC50 [7]: 10.1 µM (active)
IC50 [8]: > 100 µM (inactive)

CCOC(S)=NC(=NS(C)(=O)=O)c1ccccc1
IC50 [17]: > 66 µM (inactive)
IC50 [18]: > 66 µM (inactive)

C=CCNC(=S)N/N=C(\C)c1cccc(OC)c1
IC50 [17]: > 66 µM (inactive)
IC50 [18]: > 66 µM (inactive)

O=C(O)c1cccc(NC(=O)c2ccc(COc3ccc(Cl)cc3)cc2)c1
IC50 [5]: > 100 µM (inactive)
IC50 [6]: 21.8 µM (active)
IC50 [7]: 16.7 µM (active)
IC50 [8]: 41 µM (active)
